Among the data in US5036091A, “3-Aryloxazolidinone derivatives, process for their preparation and their use in therapy” (Delalande S.A., priority 1989, dated 1991) are ED50 and LD50 values, retold here.

Series [1] concerns 5-HTP potentialisation. In words: 5-HTP potentialisation assay in rat (antidepressive activity). The series is classed as in vivo. The following applies: po, compound given orally, 5-HTP intra-peritoneal 1 h after the first treatment, read-out: ED50 (dose which brings about in 50% of the animals generalized shakings or stereotypies consecutive to 5-HTP). The method, then:
Int. Pharmacodyn. (1982), 259, 194-221. The dose of product which, when given orally, brings about in 50% of the animals (ED50) the appearance of generalized shakings or of stereotypies (trinklings, shakes of head) consecutive to the administration by intra-peritoneal route 1 h after the first treatment of 5-hydroxy-tryptophane (5-HTP) is determined in rat.

A short description of series [2]: acute toxicity in mouse. Conditions: in vivo, po, method of Litchfield and Wilcoxon.

Consider `COCC1CN(c2ccc(OCCC(C)O)cc2)C(=O)O1` (racemic) [MD370047, 3-[4-(3-hydroxybutoxy)phenyl]-5-methoxymethyl-2-oxazolidinone], for which the ED50 in series [1] turned out to be 1.9 mg/kg.
The same measure, in the same setting: under `COCC1CN(c2ccc(OCCC(O)C(F)(F)F)cc2)C(=O)O1` (racemic) [MD370167, 3-[4-(4,4,4-trifluoro-3-hydroxybutoxy)phenyl]-5-methoxymethyl-2-oxazolidinone] stands 1.1 mg/kg.
As for `COC[C@H]1CN(c2ccc(CCCC(C)O)cc2)C(=O)O1` (stereo partly drawn) [MD230082, 3-[4-(4-hydroxypentyl)phenyl]-5(R)-methoxymethyl-2-oxazolidinone], the ED50 in series [1] is 1.1 mg/kg.
Still for that read-out and setting: under `CCOC[C@H]1CN(c2ccc(OCC[C@@H](O)C(F)(F)F)cc2)C(=O)O1` [MD230197] stands 2.4 mg/kg; under `COC[C@H]1CN(c2ccc(OCC3CCCC3O)cc2)C(=O)O1` (stereo partly drawn) [MD230201, 3-[4-(1-hydroxy-2-cyclopentylmethoxy)phenyl]-5(R)-methoxymethyl-2-oxazolidinone], 1.6 mg/kg.
On the same count and under the same terms, under `COC[C@H]1CN(c2ccc(CCC[C@@H](C)O)cc2)C(=O)O1` [MD230238, 3-[4-(4(R)-hydroxypentyl)phenyl]-5(R)-methoxymethyl-2-oxazolidinone] stands 1.9 mg/kg.
In the case of `COC[C@H]1CN(c2ccc(OCC[C@@H](C)O)cc2)C(=O)O1` [MD370120, 3-[4-(3(R)-hydroxybutoxy)phenyl]-5(R)-methoxymethyl-2-oxazolidinone], in series [1], the ED50 turned out to be 0.83 mg/kg. Further, the LD50 in series [2] worked out at 1400 mg/kg.
As to `COC[C@H]1CN(c2ccc(OCC[C@H](C)O)cc2)C(=O)O1` [MD370122, 3-[4-(3(S)-hydroxybutoxy)phenyl]-5(R)-methoxymethyl-2-oxazolidinone], the ED50 in series [1] was 0.68 mg/kg.
As for `COC[C@H]1CN(c2ccc(OCC[C@@H](O)C(F)(F)F)cc2)C(=O)O1` [MD370503, 3-[4-(4,4,4-trifluoro-3(R)-hydroxybutoxy)phenyl]-5(R)-methoxymethyl-2-oxazolidinone], the 50% effective dose (ED50) in series [1] was found to be 0.14 mg/kg. The LD50 in series [2] is 2500 mg/kg.
`COC[C@H]1CN(c2ccc(OCC[C@H](O)C(F)(F)F)cc2)C(=O)O1` [MD370504, 3-[4-(4,4,4-trifluoro-3(S)-hydroxybutoxy)phenyl]-5(R)-methoxymethyl-2-oxazolidinone]: the ED50 in series [1] stood at 1.8 mg/kg.
Still for that read-out and setting: with `Cc1cccc(N2CC(CO)OC2=O)c1` (stereo not shown) [TOLOXATONE, reference compound] the figure was 30 mg/kg.

In general, ED50 refers to the midpoint of the dose-response relation. By LD50 is commonly meant the dose expected to kill half of the subjects tested.
